Tested on: neurospheres which are clusters of neural stem cells
Assay: Test Example 1: differentiation of neurospheres into neurons (immunofluorescence, confocal microscope)
Format: cell-based
Settings: Mus musculus, Neural stem cell; test compound 10^−6M, cultivation typically 24 hours, Anti-MAP2 labeling of neurons, control = 100; read-out: Percentage of neuron in relation to control
Procedure: Neural stem cell was produced from […] in accordance with the method of Weiss and Reynolds (1996). More specifically, striate body was extirpated from mouse embryo, and the cells were dispersed in a culture medium containing EGF (20 ng/mL). The cells were cultured under the conditions of 5% CO2 and 37° C. for 5 days. The culture was then centrifuged at 400 rpm in Dissociation Medium (manufactured by Sigma) for 5 minutes, and neurospheres which are cluster of the neural stem cells were obtained. The neurospheres were dispersed in the culture medium, and cultivation was conducted under the same conditions to produce secondary neurospheres.
A sterilized cover glass was placed in the well of 24 well plate, treated overnight with polyornithine solution (30 μg/mL), and washed three times with phosphate buffered saline. Neurospheres were inoculated on the cover glass at 20 to 50 cells/cover glass. The test compound that has been adjusted to the concentration of 10^−6M with ethanol was applied to the cover glass, and the cultivation was continued for a period sufficient for differentiation of the neurospheres (typically 24 hours). The indole derivatives obtained in the Examples were used for the test compounds, and the control cells were cultivated without using such test compound.
Sufficiently differentiated neurospheres were fixed with 4% p-formaldehyde, washed with phosphate buffered saline, and after adding Triton-X100, washed again with phosphate buffered saline. Anti-MAP2 (2a+2b) (Sigma) which is a mouse monoclonal antibody used for labeling neurons and Anti-O4 (Boeringher) which is a mouse monoclonal antibody used for labeling oligodendrocytes, and Anti-GFAP (DAKO) which is a rabbit monoclonal antibody used for labeling astrocytes were added, and the cultivation was continued at room temperature for 1 hour or overnight at 4° C. Anti-mouse IgM antibody and fluorescence indicator were added, and cultivation was continued at room temperature for 1 hour. After washing with phosphate buffered saline, the cover glass was placed on a confocal microscope to observe the differentiation of the neurospheres.

| SMILES | activity at 1 µM [%] |
| --- | --- |
| COc1ccc2c(CCCCCCCCCCCCCCCCO)c[nH]c2c1 [1-1c, n=16, 16-(6-methoxy-1H-indole-3-yl)-hexadecane-1-ol] | 135 |
| COc1cccc2[nH]c(CCCCCCCCCCCCCCO)cc12 [1-2b, n=14, 14-(4-methoxy-1H-indole-2-yl)-tetradecane-1-ol] | 147 |
| COc1ccc2[nH]c(CCCCCCCCCCCCCCCCO)cc2c1 [1-2a, n=16, 16-(5-methoxy-1H-indole-2-yl)-hexadecane-1-ol] | 135 |
| COc1ccc2[nH]cc(CCCCCCCCCCCCCCO)c2c1 [1-1a, n=14, 14-(5-methoxy-1H-indole-3-yl)-tetradecane-1-ol] | 143 |
| COc1cccc2cc(CCCCCCCCCCCCCCCCO)[nH]c12 [1-2c, n=16, 16-(7-methoxy-1H-indole-2-yl)-hexadecane-1-ol] | 128 |
| COc1ccc2[nH]cc(CCCCCCCCCCCCCCCCCCO)c2c1 [1-1a, n=18, 18-(5-methoxy-1H-indole-3-yl)-octadecane-1-ol] | 169 |
| COc1cccc2[nH]cc(CCCCCCCCCCCCCCCCO)c12 [1-1b, n=16, 16-(4-methoxy-1H-indole-3-yl)-hexadecane-1-ol] | 133 |
| COc1ccc2[nH]cc(CCCCCCCCCCCCCCCCO)c2c1 [1-1a, n=16, 16-(5-methoxy-1H-indole-3-yl)-hexadecane-1-ol] | 168 |
| COc1cccc2[nH]c(CCCCCCCCCCCCCCCCO)cc12 [1-2b, n=16, 16-(4-methoxy-1H-indole-2-yl)-hexadecane-1-ol] | 184 |

From patent US7307098B2, “Indole derivatives and drugs containing the same” (Meiji Dairies Corporation, priority 2002, dated 2007)
